IC50 data for 24 compounds are collected here from patent US20210040118A1, “IMMUNOMODULATORS, COMPOSITIONS AND METHODS THEREOF” (BETTA PHARMACEUTICALS CO., LTD, priority 2018, published 2021).

Where only a bound is given, the exact number is not on record here.

T1 sequence (Q9NZQ7 19-238): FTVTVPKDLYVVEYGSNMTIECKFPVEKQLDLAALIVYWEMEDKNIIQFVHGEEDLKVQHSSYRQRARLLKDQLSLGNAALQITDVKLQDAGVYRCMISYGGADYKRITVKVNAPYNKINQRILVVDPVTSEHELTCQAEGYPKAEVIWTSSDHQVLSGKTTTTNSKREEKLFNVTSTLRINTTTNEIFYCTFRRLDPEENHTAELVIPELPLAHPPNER

One assay has as its target T1, PD-1/PD-L1 (Homo sapiens, UniProt Q9NZQ7).
T1 construct: Recombinant human PD-L1 protein (19-238) with a His-tag at the C-terminus; purchased AcroBiosystems PD1-H5229 (PD-L1); PD1-H5257 (PD-1)
The experiment in a line: PD-1/PD-L1 homogenous time-resolved fluorescence (HTRF) binding assay. The conditions noted are these: recombinant human PD-L1 (19-238) His-tag / human PD-1 (25-167) Fc tag, class symbols. The gist of the method: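 Inhibitors were preincubated 40 min at 25°C with 10 nM His-tagged human PD-L1 (19-238) and 3 nM Fc-tagged human PD-1 (25-167) in PBS pH 7.4 containing Tween-20, BSA and 1% DMSO. After 60 min with europium anti-human IgG and anti-His-APC, 665/620 nm signal ratio gave IC50 via percent-control fit.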
(In general: Time-resolved FRET reads energy transfer from a long-lived donor to a nearby acceptor.)
Consider `NCc1nc(C(=O)N2CCc3c(-c4cccc5c4CCN5C(=O)c4n[nH]c(CN)n4)cccc32)n[nH]1` [Example 137, (5-((12-azanyl)methyl)-1H-1,2,4-triazol-3-yl)(1′-(5-(aminomethyl)-1H-1,2,4-triazole-3-carbonyl)-[4,4′-biindolin]-1-yl)methanone], for which the IC50 (in general, the midpoint of a concentration-inhibition curve) lay in the range of 100 to 200 nM.
On the same count and under the same terms, as for `Cc1c(NC(=O)c2nc3c(s2)CNCC3)cccc1-c1cccc(NC(=O)c2nc3c(s2)CN(C)CC3)c1Cl` [Example 50, N-(2-chloro-2′-methyl-3′-(4,5,6,7-tetrahydrothiazolo[5,4-c]pyridine-2-carboxamido)biphenyl-3-yl)-5-methyl-4,5,6,7-tetrahydrothiazolo[5,4-c]pyridine-2-carboxamide], the figure is below 25 nM.
Still for that read-out and setting: to `O=C(c1ncc(CNCCO)s1)N1CCc2c(-c3cccc4c3CCN4C(=O)c3nc4c(s3)CNCC4)cccc21` [Example 99, (5-(((2-hydroxyethyl)amino)methyl)thiazol-2-yl)(1′-(4,5,6,7-tetrahydrothiazolo[5,4-c]pyridine-2-carbonyl)-[4,4′-biindolin]-1-yl)methanone] belongs below 25 nM.
As to `O=C(c1nc2c(s1)CN(CCF)CC2)N1CCc2c(-c3cccc4c3CCN4C(=O)c3nc4c(s3)CN(CCF)CC4)cccc21` [Example 87, [4,4′-biindoline]-1,1′-diylbis((5-(2-fluoroethyl)-4,5,6,7-tetrahydrothiazolo[5,4-c]pyridin-2-yl)methanone)], the IC50 is below 25 nM.
Still for that read-out and setting: to `Cc1c(NC(=O)c2nc3c(s2)CN(CCCC(=O)O)CC3)cccc1-c1cccc(NC(=O)c2nc3c(s2)CN(CCCC(=O)O)CC3)c1C` [Example 78, 4,4′-((((2,2′-dimethyl-[1,1′-biphenyl]-3,3′-diyl)bis(azanediyl))bis(carbonyl))bis(6,7-dihydrothiazolo[5,4-c]pyridine-2,5(4H)-diyl))dibutyric acid] belongs below 25 nM.
Same read-out and setting: to `Cc1nc(C(=O)Nc2cccc(-c3cccc(NC(=O)c4nc(C)c(CNCCO)s4)c3C)c2C)sc1CNCCO` [Example 51, N,N′-(2,2′-dimethylbiphenyl-3,3′-diyl)bis(5-((2-hydroxyethylamino)methyl)-4-methylthiazole-2-carboxamide)] belongs below 25 nM.
For `Cc1c(NC(=O)c2ccc3c(n2)CCNC3)cccc1-c1cccc(NC(=O)c2ccc3c(n2)CCN(CCO)C3)c1C` [Example 186, N-(2,2′-dimethyl-3′-(5,6,7,8-tetrahydro-1,6-naphthyridine-2-carboxamido)-[1,1′-biphenyl]-3-yl)-6-(2-hydroxyethyl)-5,6,7,8-tetrahydro-1,6-naphthyridine-2-carboxamide], the IC50 is below 25 nM.
Same read-out and setting: as for `Cc1c(Nc2nccc3cc(CN[C@@H](C)C(=O)O)cnc23)cccc1-c1cccc2c1CCN2C(=O)C1=NC2CCN(CC(=O)O)CC2S1` (stereo partly drawn) [Example 163, ((8-((3-(1-(5-(carboxymethyl)-3a,4,5,6,7,7a-hexahydrothiazolo[5,4-c]pyridine-2-carbonyl)indolin-4-yl)-2-methylphenyl)amino)-1,7-naphthyridin-3-yl)methyl)alanine], the figure is below 25 nM; as for `Cc1c(NC(=O)c2nc3cc(N)ccc3[nH]2)cccc1-c1cccc(NC(=O)c2nc3c(s2)CNCC3)c1C` [Example 12, N-(3′-(5-amino-1H-benzo[d]imidazole-2-carboxamido)-2,2′-dimethyl-[1,1′-biphenyl]-3-yl)-4,5,6,7-tetrahydrothiazolo[5,4-c]pyridine-2-carboxamide], 25 to 100 nM.
For the compound `Cc1c(NC(=O)c2ccc3c(n2)CCN(CC(F)F)C3)cccc1-c1cccc(NC(=O)c2ccc3c(n2)CCN(CC(F)F)C3)c1C` [Example 187, N,N′-(2,2′-dimethyl-[1,1′-biphenyl]-3,3′-diyl)bis(6-(2,2-difluoroethyl)-5,6,7,8-tetrahydro-1,6-naphthyridine-2-carboxamide)], the IC50 is 25 to 100 nM.
For `Cc1nc(C(=O)Nc2cccc(-c3cccc4c3CCN4C(=O)c3nc(C)c(CN[C@H](C(=O)O)C4CCOCC4)s3)c2Cl)sc1CN[C@H](C(=O)O)C1CCOCC1` [Example 61, (S)-2-((2-(3-(1-(5-(((S)-carboxy(tetrahydro-2H-pyran-4-yl)methylamino)methyl)-4-methylthiazole-2-carbonyl)indolin-4-yl)-2-chlorophenylcarbamoyl)-4-methylthiazol-5-yl)methylamino)-2-(tetrahydro-2H-pyran-4-yl)acetic acid], the IC50 is below 25 nM.
Turning to `Cc1c(NC(=O)c2ccc3c(n2)CCNC3)cccc1-c1cccc(NC(=O)c2ccc3c(n2)CCNC3)c1C` [Example 167, N,N′-(2,2′-dimethyl-[1,1′-biphenyl]-3,3′-diyl)bis(5,6,7,8-tetrahydro-1,6-naphthyridine-2-carboxamide)], the IC50 was below 25 nM.
In the case of `Cc1c(Nc2nccc3cc(CNC[C@@H](O)CC(=O)O)cnc23)cccc1-c1cccc(Nc2nccc3cc(CNC[C@@H](O)CC(=O)O)cnc23)c1C` [Example 143, (3S,3'S)-4,4′-(((((2,2′-dimethyl-[1,1′-biphenyl]-3,3′-diyl)bis(azanediyl))bis(1,7-naphthyridine-8,3-diyl))bis(methylene))bis(azanediyl))bis(3-hydroxybutanoic acid)], the IC50 was below 25 nM.
On the same count and under the same terms, to `Cc1c(Nc2nccc3cc(CNCCO)cnc23)cccc1-c1cccc2c1CCN2C(=O)C1=NC2CCN(CCC(=O)O)CC2S1` (stereo not drawn) [Example 162, 3-(2-(4-(3-((3-(((2-hydroxyethyl)amino)methyl)-1,7-naphthyridin-8-yl)amino)-2-methylphenyl)indoline-1-carbonyl)-3a,6,7,7a-tetrahydrothiazolo[5,4-c]pyridin-5(4H)-yl)propanoic acid] belongs below 25 nM; to `NC(=S)NCCN1CCc2nc(C(=O)N3CCc4c(-c5cccc6c5CCN6C(=O)c5nc6c(s5)CN(CCNC(N)=S)CC6)cccc43)sc2C1` [Example 133, 1,1′-((([4,4′-biindoline]-1,1′-dicarbonyl)bis(6,7-dihydrothiazolo[5,4-c]pyridine2,5(4H)-diyl))bis(ethane-2,1-diyl))bis(thiourea)], below 25 nM.
Still for that read-out and setting: as for `Cc1c(NC(=O)c2nc3c(s2)CN(CC(=O)O)CC3)cccc1-c1cccc(NC(=O)c2nc3c(s2)CN(CC(=O)O)CC3)c1C` [Example 4, 2,2′-((((2,2′-dimethyl-[1,1′-biphenyl]-3,3′-diyl)bis(azanediyl))bis(carbonyl))bis(6,7-dihydrothiazolo[5,4-c]pyridine-2,5(4H)-diyl))diacetic acid], the figure is below 25 nM.
Same read-out and setting: as for `Cc1c(Nc2nccc3cc(CN4CC[C@H](N(C)C)C4)cnc23)cccc1-c1cccc(Nc2nccc3cc(CN4CC[C@H](N(C)C)C4)cnc23)c1C` [Example 153, N3,N3′-bis(3-(((S)-3-(dimethylamino)pyrrolidin-1-yl)methyl)-1,7-naphthyridin-8-yl)-2,2′-dimethyl-[1,1′-biphenyl]-3,3′-diamine], the figure is below 25 nM.
For the compound `O=C(c1nc2c(s1)CN(CCOCCO)CC2)N1CCc2c(-c3cccc4c3CCN4C(=O)c3nc4c(s3)CN(CCOCCO)CC4)cccc21` [Example 120, [4,4′-biindoline]-1,1′-diylbis((5-(2-(2-hydroxyethoxy)ethyl)-4,5,6,7-tetrahydrothiazolo[5,4-c]pyridin-2-yl)methanone)], the IC50 is below 25 nM.
For `NC(=O)CN1C2CCC1c1sc(C(=O)N3CCc4c(-c5cccc6c5CCN6C(=O)c5nc6c(s5)C5CCC(C6)N5CC(=O)O)cccc43)nc1C2` (stereo not drawn) [Example 111, 2-(2-(1′-(9-(2-amino-2-oxoethyl)-5,6,7,8-tetrahydro-4H-5,8-epiminocyclohepta[d]thiazole-2-carbonyl)-[4,4′-biindoline]-1-carbonyl)-5,6,7,8-tetrahydro-4H-5,8-epiminocyclohepta[d]thiazol-9-yl)acetic acid], the IC50 is below 25 nM.
Still for that read-out and setting: to `Cc1c(NC(=O)c2nc3c(o2)CNCC3)cccc1-c1cccc(NC(=O)c2nc3c(o2)CNCC3)c1C` [Example 13, N,N′-(2,2′-dimethyl-[1,1′-biphenyl]-3,3′-diyl)bis(4,5,6,7-tetrahydrooxazolo[5,4-c]pyridine-2-carboxamide)] belongs 25 to 100 nM; to `Cc1c(NC(=O)c2nnc(C3(NC(=N)N)CCC3)s2)cccc1-c1cccc(NC(=O)c2nnc(C3(NC(=N)N)CCC3)s2)c1C` [Example 38, N,N′-(2,2′-dimethyl-[1,1′-biphenyl]-3,3′-diyl)bis(5-(1-guanidinocyclobutyl)-1,3,4-thiadiazole-2-carboxamide)], below 25 nM.
On the same count and under the same terms, to `COC(=O)Cn1cc(CN2CCc3nc(C(=O)N4CCc5c(-c6cccc7c6CCN7C(=O)c6nc7c(s6)CN(Cc6cn(CC(=O)OC)nn6)CC7)cccc54)sc3C2)nn1` [Example 135, dimethyl 2,2′-(((([4,4′-biindoline]-1,1′-dicarbonyl)bis(6,7-dihydrothiazolo[5,4-c]pyridine-2,5(4H)-diyl))bis(methylene))bis(1H-1,2,3-triazole-4,1-diyl))diacetate] belongs below 25 nM.

The same assay, now with this note: recombinant human PD-L1 (19-238) His-tag / human PD-1 (25-167) Fc tag, numeric values.
Take `O=C(O)CN1CCc2nc(C(=O)N3CCc4c(-c5cccc6c5CCN6C(=O)c5nc6c(s5)CN(CC(=O)O)CC6)cccc43)sc2C1` [Example 103, 2,2′-(([4,4′-biindoline]-1,1′-dicarbonyl)bis(6,7-dihydrothiazolo[5,4-c]pyridine-2,5(4H)-diyl))diacetic acid]: the IC50 was 0.37 nM.
Still for that read-out and setting: as for `O=C(c1nc2c(s1)CNCC2)N1CCc2c(-c3cccc4c3CCN4C(=O)c3nc4c(s3)CNCC4)cccc21` [Example 33, [4,4′-biindoline]-1,1′-diylbis((4,5,6,7-tetrahydrothiazolo[5,4-c]pyridin-2-yl)methanone)], the figure is 0.21 nM.
